Laboratory results taken from patent US20250304575A1, “COMPOUNDS AND PHARMACEUTICAL COMPOSITIONS THEREOF FOR THE TREATMENT OF NEURODEGENERATIVE DISORDERS” (Galapagos NV, priority 2022, published 2025).

Test system: Aβ1-42-injected mice (short-term spatial memory)
Assay: Alzheimer's disease mouse model using intrahippocampal injection of oligomers of amyloid beta; forced alternation Y-maze test
Assay type: in vivo, C57BL6 mice
Details: for Cumulative duration (sec) in the new arm of the Y-maze: Aβ1-42 (2 μL/side, 100 μM) injected mice, n = 12, daily treatment, Compounds 5 mg/kg p.o., Donepezil 1 mg/kg i.p., group mean, Aβ1-42 + vehicle group 78.9, sham 115.5
[1] = compared to Aβ1-42-injected, vehicle treated mice (group ID 2), 5 mg/kg p.o. daily

Method: This study evaluated the cognitive functions of the mice after a chronic administration of the compounds, after the ApO injury.
The forced alternation Y-maze test relies on the natural tendency of rodents to explore new environments and was used to evaluate short-term spatial memory and exploratory behavior of injured mice.
18-month-old male C57BL6 mice (Janvier Labs) were housed for acclimatation for 1 week in Neuro-Sys facilities and were maintained in a reversed 12 h light-dark cycle. The animals were group-housed (2-4 animals per cage) and maintained in room with controlled temperature (21-22° C.) and hygrometry (40-60%) and with food and water available ad libitum.
After one week of acclimatization, all the mice were subjected to a bilateral hippocampal stereotaxic surgery determined relative to the bregma according to the Paxinos and Franklin's mouse brain atlas(Yeung et al. 2020).
The Aβ1-42 preparation were done following the procedure described by Callizot (Callizot et al. 2013). Briefly, Aβ1-42 peptide (Bachem, 1071428, CAS #107761-42-2) was dissolved in the vehicle (0.5% Methylcellulose in water (w/v)), at an initial concentration of 100 μM. This solution was gently agitated for 3 days at 37° C. in the dark.
After agitation, the Aβ1-42 preparation were bilaterally injected into the stratum oriens, striatum pyramidal and striatum radiatum of the CA1 area of the hippocampus at three different depths within the CA1 region. Stereotaxic bilateral administration of 2 μL/side of Aβ1-42 preparation (100 μM, containing ˜15 mol/L of oligomers precisely measured by automatic WB), or vehicle, were bilaterally injected with a Hamilton syringe in the CA 1 area of the hippocampus (0.2 μL/min with an Elite Nanomite syringe pump).
All treatments started the day before the stereotaxic injections of A31-42 and were administrated daily until the last day of the experiment at which point different tissue samples were collected.
Test compounds were administered by oral gavage (p.o.).
Preparation with vehicle 1: The required amount of the test compound was weighted and placed in a glass tube. The compound was dissolved in 0.5% Methylcellulose in water (w/v) corresponding to 100% of the final volume and vortexed. The formulation (glass vial) was placed in an ultrasonic bath for 30 min.
Preparation with vehicle 2: The required amount of the test compound was weighted and placed in a glass tube. The compound was dissolved in a volume PEG200 corresponding to 25% of the final volume (at 4× concentration). The preparation was aliquoted in tubes protected from light and stored at 4° C. Before administration, a volume of MC (0.5%, w/v in sterile water) corresponding to 75% of the final volume (for 1× concentration) was added to the preparation and vortexed. The formulation (glass vial) was placed in an ultrasonic bath for homogenization. The glass vial containing the preparation was kept under agitation and protected from light until administration.
The Y-maze was used to assess short term memory (working memory) in mice. Spatial reference memory, which is underlined by the hippocampus, was tested by placing the test mice into the Y-maze with one arm closed off during training. After an intertrial interval, the mouse should remember which arm it has not explored previously and should visit this arm more often (Kraeuter, Guest, and Samyai 2019).

Structure (SMILES) | Cumulative duration (sec) in the new arm of the Y-maze | Effect on short-term spatial memory (Y-maze), day 7 post-surgery [1] | Effect on short-term spatial memory (Y-maze), day 14 post-surgery (day 14 post-surgery, compared to Aβ1-42-injected, vehicle treated mice (group ID 2), 5 mg/kg p.o. daily)
CN(C)S(=O)(=O)C1CN(c2ccc3cn(-c4ccccc4)nc3n2)C1 [Compound 66, N,N-dimethyl-1-(2-phenyl-2H-pyrazolo[3,4-b]pyridin-6-yl)azetidine-3-sulfonamide] | 104.4 s | significant beneficial effects | 
CN(C)S(=O)(=O)C1CN(c2cc3nn(-c4ccc(F)cc4)cc3cn2)C1 [Compound 14, 1-(2-(4-fluorophenyl)-2H-pyrazolo[4,3-c]pyridin-6-yl)-N,N-dimethylazetidine-3-sulfonamide] | 112.5 s | significant beneficial effects | significant beneficial effects
